In US5380761A, “Transdermal compositions” (Chinoin Gyogyszer- ES Vegyeszeti Termekek Gyara RT., priority 1991, dated 1995):

System: MAO-A
Assay: MAO-A inhibition in domestic pig brain nucleus free homogenate (14C-5-HT substrate)
Type: in vivo
Conditions: p. os 10 mg, 96 h
Experimental: In further experiments we determined in domestic pigs The MAO activity in the brain and the platelet MAO-B activity.
The experiments were carried out on female (big white) domestic pigs, weighing 25-30 kg. The pigs were caged separately during the experiments, and the same food was supplied, which was used formerly.
Blood samples were taken for the determination of MAO-B activity at: 0, 3, 6, 24, 48, 72 and 96 h. At 96 h after blood sampling the pigs were killed and the MAO-B and MAO-A activity was determined in their dissected brain.
The times of blood sampling were at: 0, 3, 6, 24 and 48 h. The transdermal preparations were removed at 24 h. […] The pigs were killed at 48 h and MAO-A and MAO-B activity of the brain was determined.
Blood samples were taken at: 0, 3, 6, 24, 48 and 72 h. The patches were removed at 48 h and the whole procedure described at group 2 was accomplished.
MAO activity was measured radiometrically according to the methods of Wurtman and Axelrod (Biochem. Pharmacol. 12. 1414-19; 1963) with a slight modification (K. Magyar in: Monoamine Oxidases and their Selective Inhibition. Ed.: K. Magyar, Pergamon Press, Akademiai Kiado, Budapest 11-21; 1980).

C#CCN(C)[C@H](C)Cc1ccccc1 [(-)-Deprenyl]
inhibition of MAO-activity (%) as compared to the control, brain, 14C-5-HT: 20.14 ± 6.0%
